Species on record: Rattus norvegicus
Experiment: DrugMatrix - Regimen: Daily Repeat
Format: toxicity, organism-based, Sprague-Dawley
Parameters: regimen Daily Repeat, gender Male, age 6-8 weeks
Conditions: in vivo, po, route oral GAVAGE, vehicle 100 % WATER; for ABSOLUTE BASOPHIL / ABSOLUTE EOSINOPHIL / ABSOLUTE LYMPHOCYTE / ABSOLUTE MONOCYTE / ABSOLUTE SEGMENTED NEUTROPHIL / BASOPHIL / EOSINOPHIL / ERYTHROCYTE COUNT / HEMATOCRIT / HEMOGLOBIN / LEUKOCYTE COUNT / LYMPHOCYTE / MEAN CORPUSCULAR HEMOGLOBIN / MEAN CORPUSCULAR HEMOGLOBIN CONCENTRATION / MEAN CORPUSCULAR VOLUME / MONOCYTE / NEUTROPHIL / NUCLEATED RED BLOOD CELLS / PLATELET COUNT: tissue Blood; for ALANINE AMINOTRANSFERASE / ALBUMIN / ALKALINE PHOSPHATASE / ASPARTATE AMINOTRANSFERASE / BLOOD UREA NITROGEN / CARBON DIOXIDE / CHLORIDE / CHOLESTEROL / CREATINE PHOSPHOKINASE / CREATININE / GLUCOSE / LACTATE DEHYDROGENASE / LIPASE / PHOSPHORUS / POTASSIUM / SODIUM / TOTAL BILIRUBIN / TOTAL PROTEIN / URIC ACID: tissue Plasma
[1] = 10 mg/kg, 120 h, dose level Low, time 5 day
[2] = 900 mg/kg, 72 h, dose level High, time 3 day
[3] = 900 mg/kg, 120 h, dose level High, time 5 day

With `CC(C)(C)NC[C@H](O)COc1nsnc1N1CCOCC1` [TIMOLOL] the “ABSOLUTE BASOPHIL” value [1] was 0 CELLS/uL, the “ABSOLUTE EOSINOPHIL” value [1] was 115.33 CELLS/uL and the “ABSOLUTE LYMPHOCYTE” value [1] was 10711.67 CELLS/uL. For the same molecule, the “ABSOLUTE MONOCYTE” value [1] was 97.67 CELLS/uL, the “ABSOLUTE SEGMENTED NEUTROPHIL” value [1] was 1075.33 CELLS/uL and the BASOPHIL [1] was 0%. The EOSINOPHIL [1] was 0.67%, the “ERYTHROCYTE COUNT” value [1] was 5.23 x10E6/uL and the HEMATOCRIT [1] was 33.1%. The HEMOGLOBIN [1] was 12.83 G/DL, the “LEUKOCYTE COUNT” value [1] was 12 x10E3/uL and the LYMPHOCYTE [1] was 90%. For the same molecule, the “MEAN CORPUSCULAR HEMOGLOBIN” value [1] was 24.53 pg, the “MEAN CORPUSCULAR HEMOGLOBIN CONCENTRATION” value [1] was 38.77 G/DL and the “MEAN CORPUSCULAR VOLUME” value [1] was 63.27 fL. The MONOCYTE [1] was 0.67%, the NEUTROPHIL [1] was 8.67% and the “NUCLEATED RED BLOOD CELLS” value [1] was 0 /100WBC. For the same molecule, the “PLATELET COUNT” value [1] was 1050 x10E3/uL, the “ALANINE AMINOTRANSFERASE” value [1] was 51 u/L and the ALBUMIN [1] was 4.03 G/DL. For the same molecule, the “ALKALINE PHOSPHATASE” value [1] was 411.33 u/L, the “ASPARTATE AMINOTRANSFERASE” value [1] was 79.33 u/L and the “BLOOD UREA NITROGEN” value [1] was 15 mg/dL. The “CARBON DIOXIDE” value [1] was 29 mmol/L, the CHLORIDE [1] was 101.33 MEQ/L and the CHOLESTEROL [1] was 71 mg/dL. The “CREATINE PHOSPHOKINASE” value [1] was 333 u/L, the CREATININE [1] was 0.16 mg/dL and the GLUCOSE [1] was 180.33 mg/dL. For the same molecule, the “LACTATE DEHYDROGENASE” value [1] was 129.33 u/L, the LIPASE [1] was 9 u/L and the PHOSPHORUS [1] was 11.93 mg/dL. For the same molecule, the POTASSIUM [1] was 5.38 MEQ/L, the SODIUM [1] was 144.33 MEQ/L and the “TOTAL BILIRUBIN” value [1] was 0.13 mg/dL. For the same molecule, the “TOTAL PROTEIN” value [1] was 6.1 G/DL, the “URIC ACID” value [1] was 0.73 mg/dL and the “ABSOLUTE BASOPHIL” value [2] was 0 CELLS/uL. The “ABSOLUTE EOSINOPHIL” value [2] was 0 CELLS/uL, the “ABSOLUTE LYMPHOCYTE” value [2] was 11176.67 CELLS/uL and the “ABSOLUTE MONOCYTE” value [2] was 84.33 CELLS/uL. For the same molecule, the “ABSOLUTE SEGMENTED NEUTROPHIL” value [2] was 872.33 CELLS/uL, the BASOPHIL [2] was 0% and the EOSINOPHIL [2] was 0%. The “ERYTHROCYTE COUNT” value [2] was 5.11 x10E6/uL, the HEMATOCRIT [2] was 32.53% and the HEMOGLOBIN [2] was 12.93 G/DL. For the same molecule, the “LEUKOCYTE COUNT” value [2] was 12.13 x10E3/uL, the LYMPHOCYTE [2] was 92% and the “MEAN CORPUSCULAR HEMOGLOBIN” value [2] was 25.27 pg. The “MEAN CORPUSCULAR HEMOGLOBIN CONCENTRATION” value [2] was 39.77 G/DL, the “MEAN CORPUSCULAR VOLUME” value [2] was 63.67 fL and the MONOCYTE [2] was 0.67%. The NEUTROPHIL [2] was 7.33%, the “NUCLEATED RED BLOOD CELLS” value [2] was 0.33 /100WBC and the “PLATELET COUNT” value [2] was 1179.33 x10E3/uL. The “ALANINE AMINOTRANSFERASE” value [2] was 48 u/L, the ALBUMIN [2] was 3.73 G/DL and the “ALKALINE PHOSPHATASE” value [2] was 389 u/L. The “ASPARTATE AMINOTRANSFERASE” value [2] was 98 u/L, the “BLOOD UREA NITROGEN” value [2] was 12.67 mg/dL and the “CARBON DIOXIDE” value [2] was 29.33 mmol/L. For the same molecule, the CHLORIDE [2] was 101.67 MEQ/L, the CHOLESTEROL [2] was 77.33 mg/dL and the “CREATINE PHOSPHOKINASE” value [2] was 901.67 u/L. The CREATININE [2] was 0.28 mg/dL, the GLUCOSE [2] was 148.67 mg/dL and the “LACTATE DEHYDROGENASE” value [2] was 189.33 u/L. For the same molecule, the LIPASE [2] was 11.33 u/L, the PHOSPHORUS [2] was 13.97 mg/dL and the POTASSIUM [2] was 7.3 MEQ/L. For the same molecule, the SODIUM [2] was 143.43 MEQ/L, the “TOTAL BILIRUBIN” value [2] was 0.17 mg/dL and the “TOTAL PROTEIN” value [2] was 5.43 G/DL. For the same molecule, the “URIC ACID” value [2] was 1.67 mg/dL, the “ABSOLUTE BASOPHIL” value [3] was 0 CELLS/uL and the “ABSOLUTE EOSINOPHIL” value [3] was 114.33 CELLS/uL. The “ABSOLUTE LYMPHOCYTE” value [3] was 9946 CELLS/uL, the “ABSOLUTE MONOCYTE” value [3] was 153 CELLS/uL and the “ABSOLUTE SEGMENTED NEUTROPHIL” value [3] was 1220 CELLS/uL. For the same molecule, the BASOPHIL [3] was 0%, the EOSINOPHIL [3] was 1% and the “ERYTHROCYTE COUNT” value [3] was 5.75 x10E6/uL. For the same molecule, the HEMATOCRIT [3] was 36.17%, the HEMOGLOBIN [3] was 13.83 G/DL and the “LEUKOCYTE COUNT” value [3] was 11.43 x10E3/uL. For the same molecule, the LYMPHOCYTE [3] was 87%, the “MEAN CORPUSCULAR HEMOGLOBIN” value [3] was 24.07 pg and the “MEAN CORPUSCULAR HEMOGLOBIN CONCENTRATION” value [3] was 38.27 G/DL. For the same molecule, the “MEAN CORPUSCULAR VOLUME” value [3] was 62.97 fL, the MONOCYTE [3] was 1.33% and the NEUTROPHIL [3] was 10.67%. For the same molecule, the “NUCLEATED RED BLOOD CELLS” value [3] was 0 /100WBC, the “PLATELET COUNT” value [3] was 1330.33 x10E3/uL and the “ALANINE AMINOTRANSFERASE” value [3] was 48 u/L. The ALBUMIN [3] was 3.63 G/DL, the “ALKALINE PHOSPHATASE” value [3] was 402.67 u/L and the “ASPARTATE AMINOTRANSFERASE” value [3] was 107.33 u/L. For the same molecule, the “BLOOD UREA NITROGEN” value [3] was 14.33 mg/dL, the “CARBON DIOXIDE” value [3] was 23.67 mmol/L and the CHLORIDE [3] was 103.67 MEQ/L. The CHOLESTEROL [3] was 78.67 mg/dL, the “CREATINE PHOSPHOKINASE” value [3] was 707.33 u/L and the CREATININE [3] was 0.14 mg/dL. For the same molecule, the GLUCOSE [3] was 142 mg/dL, the “LACTATE DEHYDROGENASE” value [3] was 252.33 u/L and the LIPASE [3] was 10 u/L. The PHOSPHORUS [3] was 11.6 mg/dL, the POTASSIUM [3] was 6.41 MEQ/L and the SODIUM [3] was 144.37 MEQ/L. For the same molecule, the “TOTAL BILIRUBIN” value [3] was 0.17 mg/dL, the “TOTAL PROTEIN” value [3] was 5.27 G/DL and the “URIC ACID” value [3] was 1.5 mg/dL.

From ChEMBL document CHEMBL3885881, “DrugMatrix”
